In ChEMBL document CHEMBL1135787, “Synthesis of new molecular probes for investigation of steroid biosynthesis induced by selective interaction with peripheral type benzodiazepine receptors (PBR)” (J Med Chem, 2002):

Legend:
Translocator protein [1] = target: T1, Translocator protein (Rattus norvegicus, UniProt P16257); test: Inhibition of [3H]PK11195 binding to mitochondrial rat testis Peripheral type benzodiazepine receptor (PBR)
[2] = Stimulatory effect on progesterone biosynthesis in MA10 leydig cells; assay type: functional, Mus musculus
Translocator protein [3] = target: T1, Translocator protein; test: Inhibition of [3H]Ro-5-4864 binding to mitochondrial rat testis Peripheral type benzodiazepine receptor (PBR)
Translocator protein [4] = target: T1, Translocator protein; test: Inhibition of [3H]PK11195 binding to Peripheral type benzodiazepine receptor (PBR) in rat cortex homogenate by 50%

T1 sequence (P16257 whole entry, looked up): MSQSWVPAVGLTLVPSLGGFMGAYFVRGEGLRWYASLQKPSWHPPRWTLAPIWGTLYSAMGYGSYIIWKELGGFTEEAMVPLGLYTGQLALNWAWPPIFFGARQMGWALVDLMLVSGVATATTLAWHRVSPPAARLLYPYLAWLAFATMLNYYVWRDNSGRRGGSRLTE

Structure (SMILES)	Ki (Translocator protein [1]) [nM]	Progesterone production [2]	Ki (Translocator protein [3]) [nM]	Ki (Translocator protein [4]) [nM]
CCNC(=O)OC1=C(c2ccccc2)Oc2ccccc2-n2cccc21	0.2	3.3 ng 2hr-1 (10e5*cells)-1	0.1	0.11
CCN(CC)C(=O)OC1=C(c2ccccc2)Cc2ccccc2-n2cccc21	–	–	–	5.7
CCN(CC)C(=O)OC1=C(c2cccs2)Oc2ccccc2-n2cccc21	–	–	–	11.5
O=C(NC1CC1)OC1=C(c2ccccc2)Oc2ccccc2-n2cccc21	0.31	3.5 ng 2hr-1 (10e5*cells)-1	0.47	2.21
O=C1CN=C(c2ccccc2Cl)c2cc([N+](=O)[O-])ccc2N1 [CLONAZEPAM]	–	2.3 ng 2hr-1 (10e5*cells)-1	–	–
CCN(CC)C(=O)OC1=C(c2cccs2)Oc2cccnc2-n2cccc21	–	–	–	0.23
CCC(C)N(C)C(=O)c1cc2ccccc2c(-c2ccccc2Cl)n1 (configuration not stated) [PK-11195]	–	3.4 ng 2hr-1 (10e5*cells)-1	–	–
O=C(OC1=C(c2ccccc2)Oc2ccccc2-n2cccc21)N1CCC1	6	3.5 ng 2hr-1 (10e5*cells)-1	4.3	6.03
CN1CCN(C(=O)OC2=C(c3ccccc3)Oc3ccccc3-n3cccc32)CC1	29	3.8 ng 2hr-1 (10e5*cells)-1	15	7.2
CCN(CC)C(=O)OC1=C(c2cc(F)cc(F)c2)Oc2ccccc2-n2cccc21	–	–	–	1.26
CCCCN(C)C(=O)OC1=C(c2ccccc2)Oc2ccccc2-n2cccc21	–	–	–	0.92
CCN(C)C(=O)OC1=C(c2ccccc2)Oc2ccccc2-n2cccc21	–	–	–	0.78
CCN(CC)C(=O)OC1=C(c2ccccc2)Oc2cccnc2-n2cccc21	11	3.5 ng 2hr-1 (10e5*cells)-1	22	1.77
Cc1ccc(C2=C(OC(=O)N(C)C)c3cccn3-c3ncccc3O2)cc1	–	–	–	0.44
CCCN(C)C(=O)OC1=C(c2ccccc2)Oc2ccccc2-n2cccc21	–	–	–	0.69
CC(=O)OC1=C(c2cccc(C)c2)Oc2ccccc2-n2cccc21	–	–	–	2.5
CC(=O)OC1=C(c2ccc(C)cc2)Oc2cccnc2-n2cccc21	–	–	–	13.5
CCNC(=O)OC1=C(c2ccccc2)Oc2c(Cl)cccc2-n2cccc21	–	–	–	0.18
CCCNC(=O)OC1=C(c2ccccc2)Oc2ccccc2-n2cccc21	–	–	–	0.91
CCN(CC)C(=O)OC1=C(c2cccc(C)c2)Oc2cccnc2-n2cccc21	–	–	–	0.56
CCN(CC)C(=O)OC1=C(c2cccc(C)c2)Oc2ccccc2-n2cccc21	–	–	–	1.2
CCNC(=O)OC1=C(c2ccc(C)cc2)Oc2ccccc2-n2cccc21	–	–	–	0.68
